This assay addresses Matrix metalloproteinase-9 (MMP-9) (Homo sapiens, UniProt P14780). Nature of the assay: fluorogenic peptide. It counts as biochemical.

The values that follow come from paper PMC3482625 (Analytical chemistry, 2011).

Chain of Matrix metalloproteinase-9 (MMP-9) (P14780 107-707): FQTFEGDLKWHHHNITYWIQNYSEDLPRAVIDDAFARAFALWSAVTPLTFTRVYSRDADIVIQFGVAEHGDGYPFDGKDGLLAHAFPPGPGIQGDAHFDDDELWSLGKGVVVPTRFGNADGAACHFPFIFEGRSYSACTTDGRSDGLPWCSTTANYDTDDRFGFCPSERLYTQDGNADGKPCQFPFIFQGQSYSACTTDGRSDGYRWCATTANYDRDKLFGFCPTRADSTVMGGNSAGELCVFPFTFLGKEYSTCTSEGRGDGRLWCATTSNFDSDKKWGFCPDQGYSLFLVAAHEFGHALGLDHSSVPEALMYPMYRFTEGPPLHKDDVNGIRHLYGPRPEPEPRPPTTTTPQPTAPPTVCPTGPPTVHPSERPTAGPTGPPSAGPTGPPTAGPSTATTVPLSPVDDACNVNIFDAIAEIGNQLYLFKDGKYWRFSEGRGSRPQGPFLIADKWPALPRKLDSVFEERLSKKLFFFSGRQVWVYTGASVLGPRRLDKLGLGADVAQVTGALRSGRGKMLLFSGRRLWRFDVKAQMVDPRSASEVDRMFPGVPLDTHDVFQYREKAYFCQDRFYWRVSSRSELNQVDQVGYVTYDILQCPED

Compound `CC(C)(NS(=O)(=O)c1ccc(Oc2ccc(F)cc2)cc1)C(=O)NO` [CP471474] had an IC50 of 11.9 ± 1 nM.

One may read the IC50 as the concentration needed to halve the response being measured. Lower therefore signals higher potency.
